Experiment [1] deals with T1, CDK16 (Homo sapiens, UniProt Q00536, S319D).
T1 construct: kinase domain, CDK16 163–478, C-terminal His tag
The experiment in a line: biochemical. On the set-up: Differential scanning fluorimetry (SYPRO Orange), 2 uM CDK16, Tm shift versus 2.5% DMSO control. The conditions noted are these: for ΔTm at 12.5 µM: read-out: Tm shift (°C). On the procedure: Thermal melting experiments were performed using a Real-Time PCR machine Mx3005p (Stratagene) as described previously. Briefly, 2 μM CDK16 was screened against a collection of kinase inhibitors in a 96-well plate format. […] Data were analysed with the MxPro software. […] To identify protein constructs suitable for structural studies, human CDK16 was recombinantly expressed in E. coli with a variety of N- and C-terminal truncations. […] To identify potential inhibitors of CDK16, we screened the recombinant protein kinase domain against many inhibitor libraries using differential scanning fluorimetry (DSF). Ligands in this assay increase a protein's melting temperature (Tm shift, ΔTm) by an amount proportional to their binding affinity. […] Rebastinib is a multitargeted type II kinase inhibitor that was developed to inhibit BCR-ABL as well as the drug-resistant gatekeeper mutant ABL^T315I (Figure 1). It has entered phase I clinical trials for chronic myeloid leukaemia.

Experiment [2] deals with T2, CDK16 (Homo sapiens, UniProt Q00536). The experiment in a line: […] kinase assay with PCTAIRE-tide; also DSF ΔTm […] °C. It counts as biochemical. On the set-up: E. coli-purified human CDK16 (kinase assay); 163–478 S319D in DSF; with cyclin Y (with endogenous 14-3-3).
The target of experiment [3] is T2, CDK16. The experiment in a line: co-crystal structure ([…] Å); also DSF ΔTm […] °C, kinase assay IC50 (E. coli CDK16 + cyclin Y/[…]-3-3). On the set-up: PCTAIRE-tide substrate. It counts as biochemical.
Experiment [4] concerns the target T2, CDK16. The experiment in a line: co-crystal structure ([…] Å); also DSF ΔTm […] °C, kinase assay IC50 (E. coli CDK16 + cyclin Y/[…]-3-3), CETSA. In kind it is biochemical. On the set-up: PCTAIRE-tide substrate.

T2 sequence (Q00536 whole entry): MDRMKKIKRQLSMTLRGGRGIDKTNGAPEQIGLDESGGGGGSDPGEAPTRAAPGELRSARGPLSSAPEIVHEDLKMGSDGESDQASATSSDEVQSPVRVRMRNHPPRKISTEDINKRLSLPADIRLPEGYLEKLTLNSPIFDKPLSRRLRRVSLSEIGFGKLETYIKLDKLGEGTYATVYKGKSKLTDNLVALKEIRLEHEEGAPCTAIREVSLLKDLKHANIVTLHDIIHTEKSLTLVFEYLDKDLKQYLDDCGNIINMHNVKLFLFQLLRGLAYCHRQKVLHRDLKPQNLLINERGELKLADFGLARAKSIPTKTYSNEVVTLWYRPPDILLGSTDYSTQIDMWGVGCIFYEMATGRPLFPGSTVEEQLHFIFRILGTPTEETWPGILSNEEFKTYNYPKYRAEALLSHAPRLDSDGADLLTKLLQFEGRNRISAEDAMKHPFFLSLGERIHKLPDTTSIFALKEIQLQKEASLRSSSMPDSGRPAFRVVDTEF
T2 sequence (Q8ND76 2-341 partner): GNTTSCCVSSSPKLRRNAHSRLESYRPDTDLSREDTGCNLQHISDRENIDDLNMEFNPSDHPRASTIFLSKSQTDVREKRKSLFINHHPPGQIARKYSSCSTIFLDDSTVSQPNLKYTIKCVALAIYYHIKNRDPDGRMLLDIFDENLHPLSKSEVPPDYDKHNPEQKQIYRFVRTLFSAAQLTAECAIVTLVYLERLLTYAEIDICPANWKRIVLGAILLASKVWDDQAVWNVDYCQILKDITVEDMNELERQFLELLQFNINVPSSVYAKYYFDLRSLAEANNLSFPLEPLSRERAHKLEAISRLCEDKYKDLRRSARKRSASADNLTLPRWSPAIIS
T1 sequence (Q00536 163-478 S319D): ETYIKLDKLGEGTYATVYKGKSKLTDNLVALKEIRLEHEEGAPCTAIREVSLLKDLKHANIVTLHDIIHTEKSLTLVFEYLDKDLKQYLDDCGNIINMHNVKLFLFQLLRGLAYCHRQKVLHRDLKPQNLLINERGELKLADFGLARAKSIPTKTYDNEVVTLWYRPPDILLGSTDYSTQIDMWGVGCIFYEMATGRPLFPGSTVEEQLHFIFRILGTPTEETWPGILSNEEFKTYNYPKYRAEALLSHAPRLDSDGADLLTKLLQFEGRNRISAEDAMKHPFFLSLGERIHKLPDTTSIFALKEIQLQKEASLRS

In the case of `O=Nc1c(-c2c(O)[nH]c3ccc(I)cc23)[nH]c2ccccc12` [5-Iodo-indirubin-3′-monoxime], the ΔTm at 12.5 µM on CDK16 [1] turned out to be 6.1 °C. Same read-out and setting: the figure for `O=C1Nc2ccccc2/C1=C\c1cnc[nH]1` [(Z,E)-3-(imidazol-4-ylmethylene)indolin-2-one] is 6.7 °C; for `O=C(Nc1c[nH]nc1-c1nc2ccc(CN3CCOCC3)cc2[nH]1)NC1CC1` [AT9283] it is 5.7 °C; for `CC(C)Oc1cc(Nc2nc(N[C@@H](C)c3ccc(F)cn3)ncc2Cl)n[nH]1` [AZ23] it is 5.8 °C. On the same count and under the same terms, the figure for `N#CCCc1ccc2c(c1)-c1[nH]c3ccc([N+](=O)[O-])cc3c1CC(=O)N2` [Alsterpaullone, 2-Cyanoethyl] is 7.9 °C; for `Nc1nc(Nc2ccc(S(N)(=O)=O)cc2)nn1C(=S)Nc1c(F)cccc1F` [Cdk1/2 Inhibitor III] it is 9.6 °C. With `Cc1nc(N)sc1-c1ccnc(Nc2cccc([N+](=O)[O-])c2)n1` [Cdk2/9 Inhibitor], on CDK16 [1], the ΔTm at 12.5 µM was 7.2 °C. Same read-out and setting: under `O=C(O[C@H]1CN[C@H](C#Cc2cc3ncnc(Nc4ccc(Cc5ccccc5)cc4)c3s2)C1)N1CCOCC1` [GSK238583A] stands 5.8 °C; under `NS(=O)(=O)c1ccc(NN=C2C(=O)Nc3ccc(C(=O)NCc4ccncc4)cc32)cc1` [GW300657X], 8.8 °C; under `NS(=O)(=O)c1ccc(N/N=C2\C(=O)Nc3ccc(C(=O)NCCc4c[nH]cn4)cc32)cc1` [GW300660X], 6.8 °C. Turning to `CC(C)(CO)CNC(=O)c1ccc2c(c1)/C(=N/Nc1ccc(S(N)(=O)=O)cc1)C(=O)N2` [GW301784X], the ΔTm at 12.5 µM on CDK16 [1] was 6 °C. Still for that read-out and setting: under `CC(C)COC(=O)c1ccc2c(c1)/C(=C/Nc1ccc(S(N)(=O)=O)cc1)C(=O)N2` [GW416981X] stands 8.7 °C; under `CCN(CC)Cc1ccc(Nc2nccc(-c3cnn4ncccc34)n2)cc1` [GW780056X], 4.8 °C. `O=Nc1c(-c2c(O)[nH]c3ccc(S(=O)(=O)O)cc23)[nH]c2ccccc12` [Indirubin-3′-monoxime-5-sulphonic acid]: the ΔTm at 12.5 µM at CDK16 [1] is 6.7 °C.

In the case of `CNC(=O)c1nn(C)c2c1C(C)(C)Cc1cnc(Nc3ccc(N4CCN(C)CC4)cc3)nc1-2` [Milciclib], the ΔTm at 12.5 µM on CDK16 [1] stood at 6.2 °C. Still for that read-out and setting: the figure for `Cc1ccc([N+](=O)[O-])cc1S(=O)(=O)N(C)/N=C/c1cnc2ccc(Br)cn12` [PIK-75] is 4.7 °C; for `CNC(=O)c1cc(Oc2ccc(NC(=O)Nc3ccc(Cl)c(C(F)(F)F)c3)c(F)c2)ccn1` [Regorafenib] it is 4.1 °C. For the compound `CN1CCC(C(=O)Nc2n[nH]c3nc(-c4ccc(O)cc4)c(Br)cc23)CC1` [SB-732881-H], the ΔTm at 12.5 µM on CDK16 [1] came to 5.5 °C.

As to `CN1CCC(C(=O)Nc2n[nH]c3nc(-c4ccc(O)cc4)c(Br)cc23)CC1` [SB-732881], the “Tm shift (°C)” value at CDK16 [1] (12.5 µM, binder, Tm shift (°C)) amounted to 5.2 °C. In the case of `CCN1CCC(CC(=O)Nc2n[nH]c3nc(-c4cccs4)c(Br)cc23)CC1` [SB-739245-AC], the ΔTm at 12.5 µM on CDK16 [1] stood at 5.4 °C.

With `COc1ccc2c(c1)/C(=C/c1cnc[nH]1)C(=O)N2` [SU9516], at CDK16 [1], the ΔTm at 12.5 µM was found to be 6 °C.

For the compound `CC(C)(C)c1nc(-c2cccc(NS(=O)(=O)c3c(F)cccc3F)c2F)c(-c2ccnc(N)n2)s1` [dabrafenib], the IC50 against CDK16 [2] turned out to be 35 nM. For the same compound, the ΔTm at 12.5 µM on CDK16 [1] came out at 10.4 °C. Turning to `O=C1Nc2ccccc2/C1=C1/Nc2ccccc2/C1=N\OCCC(O)CO` (stereo not drawn) [indirubin E804], on CDK16 [1], the ΔTm at 12.5 µM was found to be 7.6 °C. In addition, the IC50 at CDK16 [3] was determined as 83 nM. Regarding `CNC(=O)c1cc(Oc2ccc(NC(=O)Nc3cc(C(C)(C)C)nn3-c3ccc4ncccc4c3)c(F)c2)ccn1` [rebastinib], the ΔTm at 12.5 µM on CDK16 [1] is 12.6 °C. The half-maximal inhibitory concentration (IC50) at CDK16 [4] worked out at 32 nM.

Usually IC50 stands for the point on the concentration scale where inhibition reaches its midpoint.

For the origin of these results see PMC5317395, “Structure and inhibitor specificity of the PCTAIRE-family kinase CDK16” (Biochemical Journal, 2017).
